What was measured:
Type in all cases: cell-based
hKv1.3 = hKv1.3 (Homo sapiens, UniProt P22001); test: cell-based; settings: Kv1.3 (IWQ) IC50 (nM, Avg)
[1] = system: IL-2 secretion from T cells in human whole blood; settings: read-out: WB (IL-2) IC50 (nM, Avg)
[2] = system: IFN-g secretion from T cells in human whole blood; settings: read-out: WB (IFNg) IC50 (nM, Avg)

hKv1.3, sequence (P22001 whole entry): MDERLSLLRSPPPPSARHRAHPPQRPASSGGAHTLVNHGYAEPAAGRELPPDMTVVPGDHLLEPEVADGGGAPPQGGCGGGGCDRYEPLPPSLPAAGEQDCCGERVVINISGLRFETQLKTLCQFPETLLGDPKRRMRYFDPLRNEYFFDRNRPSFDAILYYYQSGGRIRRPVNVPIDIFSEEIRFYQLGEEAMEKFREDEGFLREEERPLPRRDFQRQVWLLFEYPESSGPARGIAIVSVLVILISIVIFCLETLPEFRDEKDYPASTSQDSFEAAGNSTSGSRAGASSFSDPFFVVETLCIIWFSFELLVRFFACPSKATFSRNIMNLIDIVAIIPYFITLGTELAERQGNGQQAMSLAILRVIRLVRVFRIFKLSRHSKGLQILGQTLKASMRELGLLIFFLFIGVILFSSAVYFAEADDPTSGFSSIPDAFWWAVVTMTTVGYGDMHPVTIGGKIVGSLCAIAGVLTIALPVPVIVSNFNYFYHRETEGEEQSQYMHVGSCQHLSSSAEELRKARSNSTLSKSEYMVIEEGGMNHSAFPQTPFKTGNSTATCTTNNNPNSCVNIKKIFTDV

Row | Compound | IC50 (hKv1.3) [nM] | IC50 [1] [nM] | IC50 [2] [nM]
1 | CC[C@H](C)[C@@H]1NC(=O)[C@@H](NC(=O)[C@H](CO)NC(=O)[C@@H](N)CCCNC(=N)N)CSSC[C@@H](C(=O)O)NC(=O)[C@H]([C@@H](C)O)NC(=O)CNC(=O)[C@@H]2CSSC[C@@H]3NC(=O)[C@H](Cc4cccc5ccccc45)NC(=O)[C@H](Cc4ccccc4)NC(=O)[C@H](C)NC(=O)[C@H]([C@@H](C)O)NC(=O)[C@H](CSSC[C@H](NC(=O)[C@H](Cc4ccccc4)NC(=O)[C@H](CO)NC(=O)[C@H](CC(C)C)NC(=O)[C@H](CCCNC(=N)N)NC(=O)[C@H](Cc4ccc(O)cc4)NC(=O)[C@H](CCCCN)NC(=O)[C@H](CCSC)NC(=O)[C@H](CO)NC(=O)[C@H](Cc4c[nH]cn4)NC(=O)[C@H](CCCCN)NC3=O)C(=O)N[C@@H](CCCNC(=N)N)C(=O)N[C@@H](CCCCN)C(=O)N[C@@H]([C@@H](C)O)C(=O)N2)NC(=O)[C@H](CCCNC(=N)N)NC(=O)[C@H](CO)NC(=O)[C@H](CCCCN)NC(=O)[C@@H]2CCCN2C(=O)[C@H]([C@@H](C)CC)NC(=O)[C@H]([C@@H](C)O)NC(=O)[C@H](CC(=O)O)NC1=O [[1-Nal16]ShK] | 0.699 | 28.9 | 9.55
2 | CC[C@H](C)[C@@H]1NC(=O)[C@H]([C@@H](C)O)NC(=O)[C@H](CC(=O)O)NC(=O)[C@H](CCC(=O)O)NC(=O)[C@@H](NC(=O)[C@H](CO)NC(=O)[C@@H](N)CCCNC(=N)N)CSSC[C@@H](C(N)=O)NC(=O)[C@H]([C@@H](C)O)NC(=O)CNC(=O)[C@@H]2CSSC[C@@H]3NC(=O)[C@H](CCCCN)NC(=O)[C@H](Cc4ccccc4)NC(=O)[C@H](C)NC(=O)[C@H]([C@@H](C)O)NC(=O)[C@H](CSSC[C@H](NC(=O)[C@H](Cc4ccccc4)NC(=O)[C@H](CO)NC(=O)[C@H](CC(C)C)NC(=O)[C@H](CCCNC(=N)N)NC(=O)[C@H](Cc4ccc(O)cc4)NC(=O)[C@H](CCCCN)NC(=O)[C@H](CO)NC(=O)[C@H](CO)NC(=O)[C@H](Cc4c[nH]cn4)NC(=O)[C@H](CCCCN)NC3=O)C(=O)N[C@@H](CCCNC(=N)N)C(=O)N[C@@H](CCCCN)C(=O)N[C@@H]([C@@H](C)O)C(=O)N2)NC(=O)[C@H](CCCNC(=N)N)NC(=O)[C@H](CO)NC(=O)[C@H](CCCCN)NC(=O)[C@@H]2CCCN2C1=O [[Glu4, Lys16,Ser21]ShK-amide] | 0.098 | 0.86 | 1.99
3 | CCCC[C@@H]1NC(=O)[C@H](CO)NC(=O)[C@H](Cc2c[nH]cn2)NC(=O)[C@H](CCCCN)NC(=O)[C@@H]2CSSC[C@@H]3NC(=O)[C@H]([C@@H](C)O)NC(=O)[C@H](CCCCN)NC(=O)[C@H](CCCNC(=N)N)NC(=O)[C@H](CSSC[C@H](NC(=O)[C@H](CCCNC(=N)N)NC(=O)[C@H](CO)NC(=O)[C@H](CCCCN)NC(=O)[C@@H]4CCCN4C(=O)[C@H]([C@@H](C)CC)NC(=O)[C@H]([C@@H](C)O)NC(=O)[C@H](CC(=O)O)NC(=O)[C@H]([C@@H](C)CC)NC(=O)[C@@H](NC(=O)[C@H](CO)NC(=O)[C@@H](N)CCCNC(=N)N)CSSC[C@@H](C(N)=O)NC(=O)[C@H]([C@@H](C)O)NC(=O)CNC3=O)C(=O)N[C@@H]([C@@H](C)O)C(=O)N[C@@H](C)C(=O)N[C@@H](Cc3ccccc3)C(=O)N[C@@H](Cc3c[nH]cn3)C(=O)N2)NC(=O)[C@H](Cc2ccccc2)NC(=O)[C@H](CO)NC(=O)[C@H](CC(C)C)NC(=O)[C@H](CCCNC(=N)N)NC(=O)[C@H](Cc2ccc(O)cc2)NC(=O)[C@H](CCCCN)NC1=O [[His, Nle21]ShK-amide] | 0.139 | 0.24 | 0.148
4 | CC[C@H](C)[C@@H]1NC(=O)[C@@H](NC(=O)[C@H](CO)NC(=O)[C@@H](N)CCCNC(=N)N)CSSC[C@@H](C(N)=O)NC(=O)[C@H]([C@@H](C)O)NC(=O)CNC(=O)[C@@H]2CSSC[C@@H]3NC(=O)[C@H](CCCCN)NC(=O)[C@H](Cc4ccccc4)NC(=O)[C@H](C)NC(=O)[C@H]([C@@H](C)O)NC(=O)[C@H](CSSC[C@H](NC(=O)[C@H](Cc4ccccc4)NC(=O)[C@H](Cc4ccccc4)NC(=O)[C@H](CC(C)C)NC(=O)[C@H](CCCNC(=N)N)NC(=O)[C@H](Cc4ccc(O)cc4)NC(=O)[C@H](CCCCN)NC(=O)[C@H](CCSC)NC(=O)[C@H](CO)NC(=O)[C@H](Cc4c[nH]cn4)NC(=O)[C@H](CCCCN)NC3=O)C(=O)N[C@@H](CCCCN)C(=O)N[C@@H](CCCCN)C(=O)N[C@@H]([C@@H](C)O)C(=O)N2)NC(=O)[C@H](CCCNC(=N)N)NC(=O)[C@H](CO)NC(=O)[C@H](CCCCN)NC(=O)[C@@H]2CCCN2C(=O)[C@H]([C@@H](C)CC)NC(=O)[C@H]([C@@H](C)O)NC(=O)[C@H](CC(=O)O)NC1=O [[Lys16, 29;Phe26]ShK-amide] | 0.542 | 1.42 | 1.36
5 | CC[C@H](C)[C@@H]1NC(=O)[C@@H](NC(=O)[C@H](CO)NC(=O)[C@@H](N)CCCNC(=N)N)CSSC[C@@H](C(=O)O)NC(=O)[C@H]([C@@H](C)O)NC(=O)CNC(=O)[C@@H]2CSSC[C@@H]3NC(=O)[C@H](CCC(N)=O)NC(=O)[C@H](Cc4cccc5ccccc45)NC(=O)[C@H](C)NC(=O)[C@H]([C@@H](C)O)NC(=O)[C@H](CSSC[C@H](NC(=O)[C@H](Cc4ccccc4)NC(=O)[C@H](CO)NC(=O)[C@H](CC(C)C)NC(=O)[C@H](CCCNC(=N)N)NC(=O)[C@H](Cc4ccc(O)cc4)NC(=O)[C@H](CCCCN)NC(=O)[C@H](CCSC)NC(=O)[C@H](CO)NC(=O)[C@H](Cc4c[nH]cn4)NC(=O)[C@H](CCCCN)NC3=O)C(=O)N[C@@H](CCCNC(=N)N)C(=O)N[C@@H](CCCCN)C(=O)N[C@@H]([C@@H](C)O)C(=O)N2)NC(=O)[C@H](CCCNC(=N)N)NC(=O)[C@H](CO)NC(=O)[C@H](CCCCN)NC(=O)[C@@H]2CCCN2C(=O)[C@H]([C@@H](C)CC)NC(=O)[C@H]([C@@H](C)O)NC(=O)[C@H](CC(=O)O)NC1=O [[1-Nal15]ShK] | 0.072 | 0.184 | 0.291
6 | CC[C@H](C)[C@@H]1NC(=O)[C@@H](NC(=O)[C@H](CO)NC(=O)[C@@H](N)CCCNC(=N)N)CSSC[C@@H](C(=O)O)NC(=O)[C@H]([C@@H](C)O)NC(=O)CNC(=O)[C@@H]2CSSC[C@@H]3NC(=O)[C@H](CCCCN)NC(=O)[C@H](Cc4ccccc4)NC(=O)[C@H](C)NC(=O)[C@H]([C@@H](C)O)NC(=O)[C@H](CSSC[C@H](NC(=O)[C@H](Cc4cccc5ccccc45)NC(=O)[C@H](CO)NC(=O)[C@H](CC(C)C)NC(=O)[C@H](CCCNC(=N)N)NC(=O)[C@H](Cc4ccc(O)cc4)NC(=O)[C@H](CCCCN)NC(=O)[C@H](CCSC)NC(=O)[C@H](CO)NC(=O)[C@H](Cc4c[nH]cn4)NC(=O)[C@H](CCCCN)NC3=O)C(=O)N[C@@H](CCCNC(=N)N)C(=O)N[C@@H](CCCCN)C(=O)N[C@@H]([C@@H](C)O)C(=O)N2)NC(=O)[C@H](CCCNC(=N)N)NC(=O)[C@H](CO)NC(=O)[C@H](CCCCN)NC(=O)[C@@H]2CCCN2C(=O)[C@H]([C@@H](C)CC)NC(=O)[C@H]([C@@H](C)O)NC(=O)[C@H](CC(=O)O)NC1=O [[Lys16,1-Na127]ShK] | 0.113 | 0.924 | 5.68
